Experimental data from patent US4708966A, “Novel anti-inflammatory agents, pharmaceutical compositions and methods for reducing inflammation” (The Procter & Gamble Company, priority 1986, dated 1987).

Key:
[1] = test system: carrageenan rat paw edema; test: Carrageenan Rat Paw Edema Test; type: in vivo, Male Sprague-Dawley rats; conditions: for ED35: 4 h, oral, by regression analysis, read-out: ID35; for inhibition in vivo at 100 mg/kg: po, 100 mg/kg P.O., paw volume 4 h after carrageenan, vs control group, read-out: Percent Inhibiton at 100 mg/kg dose P.O
Experimental: Carrageenan Rat Paw Edema Test
Male Sprague-Dawley rats (Charles River Laboratories) are weighed and food fasted overnight. The animals are then divided into four to six groups of six animals each according to body weights (average about 145 g) so that each group has about the same average body weight (within 10 g).
The following morning animals are dosed with the test compound and then placed in individual cages. For oral dosing, the drug is suspended in 0.5% methyl cellulose with 2% Tween 80, and delivered via stomach tube in a 5 ml volume.
Paw volumes (0 time) are determined on both hind paws with a mercury displacement device equipped with a transducer and digitizer. One hour after dosing the test compound, the animals are placed in a plastic restrainer and 50 ul of a 1% (w/w) carrageenan solution in 0.9% saline is injected into the ventral surface of the left rear paw. Four hours after the carrageenan injection, the paw volumes are again determined.
The results are expressed as percent inhibition of the mean paw volume of the test group relative to the control group. Statistical differences are determined by one way analysis of variance. ID35 values are determined by regression analysis.

[2] = test system: oxazolone-induced inflamed mouse ear; test: Oxazolone-Induced Inflamed Mouse Ear Test (Ox-IMET); type: in vivo, Adult male Cox ICR mice; conditions: topical, 25 ul of 10% in ethanol, 24 h after challenge, vs control group, read-out: Percent Inhibition
Experimental: Oxazolone-Induced Inflamed Mouse Ear Test ("Ox-IMET")
Adult male Cox ICR mice, 25-35 g, are sensitized by applying 3% oxazolone in olive oil to the clipped abdomen of each animal using a cotton swab. One week later, the mice are challenged on the inner surface of the left ear with 3% oxazolone in aceotone. At the same time 25 ul of the test compound (10% in ethanol) is applied to the outer surface of the same ear. Twenty four hours after the challenge, the animals are sacrificed by cervical dislocation and both ears are removed. A 5 mm punch biopsy is removed from both ears and is weighed to the nearest 0.1 mg on a Cahn electrobalance. Ten animals are used per group. The study usually consists of 4 to 6 groups, of which one is a control group which is challenged on the left ear, but is not treated with a test compound. The results are expressed as percent inhibition of the swelling response compared to the control group. Statistical tests for significance between groups are made using a one way analysis of variance of the ear weight differences.

[3] = test system: arachidonic acid-induced inflamed mouse ear; test: Arachidonic Acid-Induced Inflamed Mouse Ear Test; type: in vivo, Adult male Cox ICR mice; conditions: for inhibition in vivo at 50 µg/ear: Mus musculus, 50 ug/ear topical, 3 hours, read-out: Percent Inhibition at 50 ug/ear topical dose; for ID50: topical, by regression analysis
Experimental: Arachidonic Acid-Induced Inflamed Mouse Ear Test
All drugs are dissolved with arachidonic acid in the vehicle. At the end of 3 hours, animals are sacrificed by cervical dislocation and both ears are removed. A 5 mm punch biopsy is removed from both ears and is weighed to the nearest 0.1 mg on a Cahn electrobalance. Ten animals are used per group. The study usually consists of 4 to 6 groups, of which one is a control group which is treated on the left ear with only arachidonic acid in the vehicle. The results are expressed as percent inhibition of the swelling response compared to the control group. Statistical tests for significance between groups are made using a one way analysis of variance of the ear weight differences. ID50 values are determined by regression analysis.

| SMILES | ED35 [1] [mg/kg] | inhibition in vivo at 100 mg/kg [1] [%] | inhibition in vivo at 10 % [2] [%] | inhibition in vivo at 50 µg/ear [3] [%] | ID50 [3] [ug/ear] |
| --- | --- | --- | --- | --- | --- |
| C#CC(=O)c1cc(C(C)(C)C)c(O)c(C(C)(C)C)c1 [Compound 1, 4-propynoyl-2,6-di-t-butylphenol] | 40 | 65 | – | – | – |
| C#CC(O)c1cc(C(C)(C)C)c(O)c(C(C)(C)C)c1 (stereo not shown) [Compound 2, 4-(1'-hydroxy-2'-propynyl)-2,6-di-t-butylphenol] | 46.8 | 75.6 | 27.3 | – | – |
| C#CCC(=O)c1cc(C(C)(C)C)c(O)c(C(C)(C)C)c1 [Compound 3, 4-(3'-butynoyl)-2,6-di-t-butylphenol] | 9.9 | 66.9 | – | 61.6 | 22.7 |
| C=C=CC(=O)c1cc(C(C)(C)C)c(O)c(C(C)(C)C)c1 [Compound 4, 4-butadienoyl-2,6-di-t-butylphenol] | – | 64.9 | – | 79.6 | 6.6 |
| C#CCCC(=O)c1cc(C(C)(C)C)c(O)c(C(C)(C)C)c1 [Compound 5, 4-(4'-pentynoyl)-2,6-di-t-butylphenol] | 8.1 | 61.3 | 25.3 | – | – |
| C=CCCC(=O)c1cc(C(C)(C)C)c(O)c(C(C)(C)C)c1 [Compound 6, 4-(4'-pentenoyl)-2,6-di-t-butylphenol] | 3.3 | 71.2 | 46 | – | – |
| C#CCC(C(=O)c1cc(C(C)(C)C)c(O)c(C(C)(C)C)c1)C(OC)OC (stereo not shown) [Compound 7, 4-(2'-dimethoxymethyl-4'-pentynoyl)-2,6-di-t-butylphenol] | – | 53.6 | 40.9 | – | – |
| C#CCC(C)(C)C(=O)c1cc(C(C)(C)C)c(O)c(C(C)(C)C)c1 [Compound 8, 4-(2', 2'-dimethyl-4'-pentynoyl)-2,6-di-t-butylphenol] | – | 50.4 | 38.3 | – | – |
| C#CC(C)(C)CC(=O)c1cc(C(C)(C)C)c(O)c(C(C)(C)C)c1 [Compound 9, 4-(3',3'-dimethyl-4'-pentynoyl)-2,6-di-t-butylphenol] | – | 41.7 | 23.2 | – | – |
| C#CC(=O)CCc1cc(C(C)(C)C)c(O)c(C(C)(C)C)c1 [Compound 10, 4-(4'-pentyn-3'-one)-2,6-di-t-butylphenol] | 24.5 | 92.2 | – | 64.9 | – |
| C=CCCCC(=O)c1cc(C(C)(C)C)c(O)c(C(C)(C)C)c1 [Compound 12, 4-(5'-hexenoyl)-2,6-di-t-butylphenol] | 11.4 | 59.9 | 29.7 | – | – |
| C#CCCC(C)C(=O)c1cc(C(C)(C)C)c(O)c(C(C)(C)C)c1 (stereo not shown) [Compound 13, 4-(2'-methyl-5'-hexynoyl)-2,6-di-t-butylphenol] | 17.9 | 69.8 | – | 74.4 | 17.5 |
| C#CCCCC(O)c1cc(C(C)(C)C)c(O)c(C(C)(C)C)c1 (stereo not shown) [Compound 14, 4-(1'-hydroxy-5'-hexynyl)-2,6-di-t-butylphenol] | 30 | 54.4 | – | – | – |
| C#CCCCCc1cc(C(C)(C)C)c(O)c(C(C)(C)C)c1 [Compound 15, 4-(5'-hexynyl)-2,6-di-t-butylphenol] | 55.2 | 75.7 | 39.6 | – | – |
| C#CCCCC(=C)c1cc(C(C)(C)C)c(O)c(C(C)(C)C)c1 [Compound 16, 4-(1'-methylidene-5'-hexynyl)-2,6-di-t-butylphenol] | – | 25.7 | 30.3 | – | – |
| C#CC[C@H](C)CC(=O)c1cc(C(C)(C)C)c(O)c(C(C)(C)C)c1 [Compound 17, 4-((S)-(-)-3'-methyl-5'-hexynoyl)-2,6-di-t-butylphenol] | 4.4 | 75.5 | 59.5 | – | – |
| C#CC[C@@H](C)CC(=O)c1cc(C(C)(C)C)c(O)c(C(C)(C)C)c1 [Compound 18, 4-((R)-(+)-3'-methyl-5'-hexynoyl)-2,6-di-t-butylphenol] | 2.5 | 72 | 54.5 | – | – |

| SMILES | ED35 [1] [mg/kg] | inhibition in vivo at 100 mg/kg [1] [%] | inhibition in vivo at 10 % [2] [%] | inhibition in vivo at 50 µg/ear [3] [%] | ID50 [3] [ug/ear] |
| --- | --- | --- | --- | --- | --- |
| C#CCCCC(=O)c1cc(C(C)(C)C)cc(C(C)(C)C)c1 [Compound 19, 1-(5'-hexynoyl)-3,5-di-t-butylbenzene] | 45.3 | 71.7 | – | – | – |
| C#CCCCC(=O)c1cc([Si](C)(C)C)c(O)c([Si](C)(C)C)c1 [Compound 20, 4-(5'-hexynoyl)-2,6-bis-trimethylsilylphenol] | 34.2 | 73.1 | – | – | – |
| C#CCCCC(=O)c1cc([Si](C)(C)C)cc([Si](C)(C)C)c1 [Compound 21, 1-(5'-hexynoyl)-3,5-bis-trimethylsilylbenzene] | ~90 | 41.7 | – | – | – |
| C#CCCCC(=O)c1cc(C(F)(F)F)cc(C(F)(F)F)c1 [Compound 22, 1-(5'-hexynoyl)-3,5-bis(trifluoromethyl)benzene] | – | 47 | – | – | – |
| C#CCCCCC(=O)c1cc(C(C)(C)C)c(O)c(C(C)(C)C)c1 [Compound 23, 4-(6'-heptynoyl)-2,6-di-t-butylphenol] | 17.4 | 67.9 | – | – | – |
| C#CCCC(=O)CCc1cc(C(C)(C)C)c(O)c(C(C)(C)C)c1 [Compound 24, 4-(6'-heptyn-3'-one)-2,6-di-t-butylphenol] | – | – | 38.2 | – | – |
| C#CCC(CC#C)C(=O)CCc1cc(C(C)(C)C)c(O)c(C(C)(C)C)c1 [Compound 25, 4-(4'-(2"-propynyl)-6'-heptyn-3'-one)-2,6-di-t-butylphenol] | – | – | 40.4 | – | – |
| C#CCCCCCC(=O)c1cc(C(C)(C)C)c(O)c(C(C)(C)C)c1 [Compound 26, 4-(7'-octynoyl)-2,6-di-t-butylphenol] | 110 | 43.3 | – | – | – |
| C#CC(=O)/C=C/c1cc(C(C)(C)C)c(O)c(C(C)(C)C)c1 [Compound 27, 4-((E)-1'-penten-4'-yn-3'-one)-2,6-di-t-butylphenol] | 28.3 | 62.8 | – | 34.8 | 52.4 |
| C=CCCC(=O)/C=C/c1cc(C(C)(C)C)c(O)c(C(C)(C)C)c1 [Compound 28, 4-((E)-1',6'-heptadiene-3'-one)-2,6-di-t-butylphenol] | – | – | 37.4 | – | – |
| COC(CC(=O)c1cc(C(C)(C)C)c(O)c(C(C)(C)C)c1)OC [Compound 29, 4-(3',3'-dimethoxypropionyl)-2,6-di-t-butylphenol] | 28.2 | 70.7 | – | – | – |
| CC(C)(C)c1cc(C(=O)CC2OCCO2)cc(C(C)(C)C)c1O [Compound 30, 4-(2'-(1",3"-dioxolane)acetyl)-2,6-di-t-butylphenol] | 35.2 | 72.8 | 33.4 | 69.1 | 29.5 |
| CCOC(CC(=O)c1cc(C(C)(C)C)c(O)c(C(C)(C)C)c1)OCC [Compound 31, 4-(3',3'-diethoxypropionyl)-2,6-di-t-butylphenol] | – | – | – | 82.8 | 15.3 |
| CC(C)(C)c1cc(C(=O)CC2OCCS2)cc(C(C)(C)C)c1O (stereo not shown) [Compound 32, 4-(2'-(1",3"-oxathiolane)acetyl)-2,6-di-t-butylphenol] | – | 50.8 | 44.5 | – | – |
| COC(Cc1cc(C(C)(C)C)c(O)c(C(C)(C)C)c1)OC [Compound 33, 4-(2',2'-dimethoxyethyl)-2,6-di-t-butylphenol] | – | – | 54.1 | – | – |
| COC(CC(=O)CCc1cc(C(C)(C)C)c(O)c(C(C)(C)C)c1)OC [Compound 34, 4-(5',5'-dimethoxy-3'-pentanone)-2,6-di-t-butylphenol] | – | 66.1 | – | – | – |
| C#CCC(C)(C)CC(=O)c1cc(C(C)(C)C)c(O)c(C(C)(C)C)c1 [Compound 35, 4-(3',3'-dimethyl-5'-hexynoyl)-2,6-di-t-butylphenol] | – | 61.1 | – | – | – |
